According to the supplement of paper PMC11986102:

Key:
Experiment in all cases: OD600 after 10 h growth (baseline-subtracted); higher = more bacterial growth (less inhibition)
[1] = tested on: Klebsiella pneumoniae MKP103
Description: (§1)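 Broth microdilution growth assay in Mueller Hinton broth, 100 µL in 96-well plates, inoculated 1:200 from OD600 0.1 overnight cultures by pinning, 37 °C with shaking at 800 rpm, 1:2 serial dilutions from 128 µg/mL (64 µg/mL for Ebastine). The read-out is OD600 after 10 h; curves were baseline-corrected by subtracting the minimum of the 2nd-4th measurements. Three biological replicates, with water and DMSO no-compound controls.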

Escherichia coli IAI1 = tested on: Escherichia coli IAI1
Description: as §1

[2] = tested on: Staphylococcus aureus Newman
Description: as §1

[3] = tested on: Pseudomonas aeruginosa PA14
Description: as §1

[4] = tested on: Escherichia coli CFT073 (UPEC)
Description: as §1

Cc1cn([C@H]2C[C@H](O)[C@@H](CO)O2)c(=O)[nH]c1=O [Thymidine]
OD600 after 10 h growth
Conditions | Escherichia coli IAI1 | [1] | [2] | [3] | [4]
0.1 µg/mL | 0.814 | 0.666 | 1.08 | 0.756 | 0.783
0.2 µg/mL | 0.952 | 0.669 | 1.07 | 0.899 | 0.956
0.5 µg/mL | 0.803 | 0.67 | 1.07 | 0.749 | 0.788
1 µg/mL | 0.802 | 0.666 | 1.22 | 0.748 | 0.794
2 µg/mL | 0.81 | 0.674 | 1.16 | 0.758 | 0.891
4 µg/mL | 0.808 | 0.69 | 1.39 | 0.853 | 0.89
8 µg/mL | 0.805 | 0.838 | 1.28 | 0.748 | 0.932
16 µg/mL | 0.804 | 0.773 | 1.23 | 0.745 | 0.873
32 µg/mL | 0.792 | 0.684 | 1.1 | 0.738 | 0.804
64 µg/mL | 0.782 | 0.672 | 1.09 | 0.718 | 0.786
128 µg/mL | 0.772 | 0.645 | 1.1 | 0.645 | 0.772

CC(C)(C)c1ccc(C(=O)CCCN2CCC(OC(c3ccccc3)c3ccccc3)CC2)cc1 [Ebastine]
OD600 after 10 h growth
Conditions | Escherichia coli IAI1 | [1] | [2] | [3] | [4]
0.05 µg/mL | 0.808 | 0.665 | 1.11 | 0.75 | 0.78
0.1 µg/mL | 0.807 | 0.667 | 1.08 | 0.752 | 0.781
0.2 µg/mL | 0.796 | 0.666 | 1.14 | 0.742 | 0.783
0.5 µg/mL | 0.793 | 0.666 | 1.06 | 0.744 | 0.789
1 µg/mL | 0.812 | 0.671 | 1.15 | 0.754 | 0.798
2 µg/mL | 0.816 | 0.681 | 1.1 | 0.842 | 0.792
4 µg/mL | 0.808 | 0.787 | 1.05 | 0.749 | 0.797
8 µg/mL | 0.81 | 0.678 | 1.03 | 0.743 | 0.803
16 µg/mL | 0.848 | 0.661 | 0.987 | 0.725 | 0.792
32 µg/mL | 0.778 | 0.647 | 0.991 | 0.697 | 0.775
64 µg/mL | 0.754 | 0.613 | 1.02 | 0.603 | 0.755

CC(=O)N[C@H](Cc1ccc2ccccc2c1)C(=O)N[C@H](Cc1ccc(Cl)cc1)C(=O)N[C@H](Cc1cccnc1)C(=O)N[C@@H](CO)C(=O)N[C@@H](Cc1ccc(O)cc1)C(=O)N[C@H](CCCNC(N)=O)C(=O)N[C@@H](CC(C)C)C(=O)N[C@@H](CCCNC(=N)N)C(=O)N1CCC[C@H]1C(=O)N[C@H](C)C(N)=O [Cetrorelix]
OD600 after 10 h growth
Conditions | Escherichia coli IAI1 | [1] | [2] | [3] | [4]
0.1 µg/mL | 0.865 | 0.674 | 1.08 | 0.741 | 0.804
0.2 µg/mL | 0.872 | 0.679 | 1.08 | 0.742 | 0.832
0.5 µg/mL | 0.829 | 0.687 | 1.08 | 0.742 | 0.8273
1 µg/mL | 0.828 | 0.693 | 1.1 | 0.727 | 0.812
2 µg/mL | 0.831 | 0.702 | 1.1 | 0.726 | 0.827
4 µg/mL | 0.821 | 0.701 | 1.11 | 0.736 | 0.83
8 µg/mL | 0.831 | 0.707 | 1.11 | 0.736 | 0.806
16 µg/mL | 0.837 | 0.712 | 1.117 | 0.754 | 0.81
32 µg/mL | 0.814 | 0.717 | 1.117 | 0.763 | 0.792
64 µg/mL | 0.8 | 0.69 | 1.09 | 0.749 | 0.807
128 µg/mL | 0.786 | 0.679 | 1.05 | 0.756 | 0.77

CC1=C(C)C(=O)C(CCCCCCCCCC[P+](c2ccccc2)(c2ccccc2)c2ccccc2)=CC1=O [Visomitin]
OD600 after 10 h growth
Conditions | Escherichia coli IAI1 | [1] | [2] | [3] | [4]
0.1 µg/mL | 0.805 | 0.672 | 1.08 | 0.762 | 0.786
0.2 µg/mL | 0.808 | 0.672 | 1.08 | 0.757 | 0.787
0.5 µg/mL | 0.8 | 0.676 | 1.09 | 0.757 | 0.785
1 µg/mL | 0.848 | 0.674 | 1.08 | 0.754 | 0.785
2 µg/mL | 0.815 | 0.679 | 0.0277 | 0.856 | 0.818
4 µg/mL | 0.795 | 0.686 | 0.0387 | 0.821 | 0.809
8 µg/mL | 0.769 | 0.697 | 0.0433 | 0.733 | 0.777
16 µg/mL | 0.045 | 0.7 | 0.0257 | 0.717 | 0.0113
32 µg/mL | 0.0307 | 0.196 | 0.0217 | 0.681 | 0.007
64 µg/mL | 0.032 | 0.00967 | 0.0133 | 0.0773 | 0.0133
128 µg/mL | 0.0327 | 0.0183 | 0.025 | 0.0423 | 0.024

Cc1c(Cl)c(C)[n+]([O-])c(Cl)c1-c1noc(-c2cc(O)c(O)c([N+](=O)[O-])c2)n1 [Opicapone]
OD600 after 10 h growth
Conditions | Escherichia coli IAI1 | [1] | [2] | [3] | [4]
0.1 µg/mL | 0.811 | 0.664 | 1.07 | 0.743 | 0.786
0.2 µg/mL | 0.855 | 0.668 | 1.07 | 0.743 | 0.788
0.5 µg/mL | 0.822 | 0.669 | 1.07 | 0.764 | 0.94
1 µg/mL | 0.815 | 0.681 | 1.07 | 0.829 | 0.787
2 µg/mL | 0.818 | 0.744 | 1.09 | 0.747 | 0.786
4 µg/mL | 0.802 | 0.791 | 1.18 | 0.81 | 0.872
8 µg/mL | 0.797 | 0.839 | 1.07 | 0.709 | 1.02
16 µg/mL | 0.798 | 0.781 | 0.413 | 0.677 | 0.787
32 µg/mL | 0.801 | 0.682 | 0.371 | 0.678 | 0.775
64 µg/mL | 0.792 | 0.669 | 0.466 | 0.658 | 0.796
128 µg/mL | 0.767 | 0.632 | 0.356 | 0.603 | 0.758

COc1cc2c(cc1Cc1cccc(Cl)c1F)c(=O)c(C(=O)O)cn2[C@H](CO)C(C)C [Elvitegravir]
OD600 after 10 h growth
Conditions | Escherichia coli IAI1 | [1] | [2] | [3] | [4]
0.1 µg/mL | 0.803 | 0.671 | 1.07 | 0.752 | 0.782
0.2 µg/mL | 0.846 | 0.666 | 1.07 | 0.747 | 0.768
0.5 µg/mL | 0.816 | 0.672 | 1.08 | 0.751 | 0.793
1 µg/mL | 0.808 | 0.664 | 1.08 | 0.748 | 0.81
2 µg/mL | 0.82 | 0.671 | 1.08 | 0.761 | 0.812
4 µg/mL | 0.818 | 0.675 | 0.309 | 0.756 | 0.804
8 µg/mL | 0.834 | 0.681 | 0.0327 | 0.758 | 0.793
16 µg/mL | 0.836 | 0.675 | 0.0197 | 0.743 | 0.807
32 µg/mL | 0.812 | 0.651 | 0.00533 | 0.689 | 0.806
64 µg/mL | 0.784 | 0.625 | 0 | 0.661 | 0.766
128 µg/mL | 0.771 | 0.596 | 0.013 | 0.588 | 0.733
